Assay results reported in patent publication US9533064B1, “Device and method for decontamination, disinfection, and sanitation” (Nanomist Systems, LLC, priority 2013, dated 2017).

Test system: G. Stearothermophilus
[1] = 36-m^3 room and 110-m^3 carpeted rooms, initial 40-55% RH, 20-25 C, biological indicators in Tyvek pouches

Experimental: The application of condensed vapor cloud generated biocide dispersion was tested in a 36-m^3 single room and in 110-m^3 two-room model (family room+bathroom). The single room was tiled floor and two-room model had wall-to-wall carpet. With initial room humidity in the range 40-55% RH and 20-25 C, decontamination tests were carried out using biological indicators (BI). Biological indicator test disks were prepared by Mesa Labs. The Biological indicators are inoculated with 4-log, 5-log and 6-log populations of G. Stearothermophilus. The BI's are in Tyvek pouches. […] The condensed vapor generator was calibrated with scaling of room size, mass concentration, carpet/tilled floor, and initial RH and temperature.

With `OO` [HP, hydrogen peroxide] as the compound, how does the “HP concentration above which 5-log kills were observed” value [1] read?
The value was “above 0.7 g/m^3”.

And the “HP concentration above which 6-log kill was observed” value [1]?
The value was “above 1.8 g/m^3”.

What about the kill time (HP mass injection rate of −50 g/min) of the same compound?
The kill time was 10 to 15 min.
